Values quoted from earlier work, collected in US20220280598A1, “COMPLEMENT INHIBITOR DOSING REGIMENS” (Apellis Pharmaceuticals, Inc., priority 2019, published 2022).

Columns and labels:
complement activation = conditions: relative to compstatin amidated at the C-terminus; published data; cited from earlier work
[1] = test system: complement activation (alternative pathway); conditions: alternative pathway-mediated erythrocyte lysis assay (WO2004/026328); cited from earlier work

Compound | Activity over compstatin (complement activation) [× more] | IC50 [1] [µM]
Ac-ICVVQDWGHHRCT-CONH2 [Ac-compstatin] | 3 | –
CC[C@H](C)[C@H](N)C(=O)N[C@H]1CSSC[C@@H](C(=O)N[C@H](C(N)=O)[C@@H](C)O)NC(=O)[C@H](CCCN=C(N)N)NC(=O)[C@H](Cc2cnc[nH]2)NC(=O)[C@H](Cc2cnc[nH]2)NC(=O)CNC(=O)[C@H](Cc2c[nH]c3ccccc23)NC(=O)[C@H](CC(=O)O)NC(=O)[C@H](CCC(N)=O)NC(=O)[C@H](C(C)C)NC(=O)[C@H](C(C)C)NC1=O [Compstatin, H-ICVVQDWGHHRCT-CONH2] | – | 12
